The values below come from patent US12473298B2, “Amide compounds, preparation method therefor, and use thereof in the medical field” (Shanghai Synergy Pharmaceutical Sciences Co., Ltd., priority 2019, dated 2025).

Each structure is given as a SMILES string. Like-named read-outs stand apart in the source and are kept apart here.

This data set in a line: Pharmacokinetic experiment in rats. It is filed as in vivo, SD rats. Particulars: for AUC / Cmax / bioavailability: male, SD, rat, plasma, rats; for AUC: read-out: Area Curve (AUC, ng/mL · h); for half-life: male, SD, rat, plasma; rats, Intravenous-Dose 4 mg/kg; read-out: Half life T1/2, h) (converted); for Cmax: read-out: Blood Drug level (Cmax, ng/mL); for bioavailability: oral 20 mg/kg vs intravenous 4 mg/kg, read-out: Bioavailability (P %). How it is done: A certain amount of compound was weighted and dissolved in 0.1% Tween under vortex and ultrasound, and 0.5% carboxymethyl cellulose sodium (CMC-NA) solution was added to form a uniform solution.

Regarding `CCN(c1cc(-c2ccc3c(c2)NC(=O)C32CCOCC2)cc(C(=O)NCc2c(OC)cc(C)[nH]c2=O)c1C)C1CCNCC1` [Example 3, 3-(ethyl(piperidin-4-yl)amino)-N-((4-methoxy-6-methyl-2-oxo-1,2-dihydropyridin-3-yl)methyl)-2-methyl-5-(2-oxo-2′,3′,5′,6′-tetrahydrospiro[dihydroindole-3,4′-pyran]-6-yl)benzamide], the half-life is 1.15 h and the bioavailability was determined as 33.1%. For the same compound, the AUC (Intravenous-Dose 4 mg/kg) was 948 ng·h/mL. Also, where the note is “Oral-Dose 20 mg/kg”, the AUC is 1570 ng·h/mL and the Cmax was determined as 415 ng/mL.

For `CCN(c1cc(-c2cc3c(cc2F)CCC32CCOCC2)cc(C(=O)NCc2c(OC)cc(C)[nH]c2=O)c1C)C1CCOCC1` [Example 16, 3-(ethyl(tetrahydro-2H-pyran-4-yl)amino)-5-(5-fluoro-2,2′,3,3′,5′,6′-hexahydrospiro[indene-1,4′-pyran]-6-yl)-N-((4-methoxy-6-methyl-2-carbonyl-1,2-dihydropyridin-3-yl)methyl)-2-methylbenzamide], the half-life was 1.42 h and the bioavailability was determined as 27.4%. The AUC (Intravenous-Dose 4 mg/kg) was found to be 956 ng·h/mL. Moreover, for the setting “Oral-Dose 20 mg/kg”, the AUC is 1310 ng·h/mL and the Cmax amounted to 480 ng/mL.

As for `CCN1C(=O)C2(CCOCC2)c2ccc(-c3cc(C(=O)NCc4c(C)cc(C)[nH]c4=O)c(C)c(N(CC)C4CCOCC4)c3)cc21` [Example 18, N-((4,6-dimethyl-2-carbonyl-1,2-dihydropyridin-3-yl)methyl)-3-(ethyl(tetrahydro-2H-pyran-4-yl)amino)-5-(1-ethyl-2-carbonyl-2′,3′,5′,6′-tetrahydrospiro[dihydroindole-3,4′-pyran]-6-yl)-2-methylbenzamide], the half-life was 1.35 h and the bioavailability came out at 25.5%. Also, the AUC (Intravenous-Dose 4 mg/kg) was 932 ng·h/mL. Where the note is “Oral-Dose 20 mg/kg”, the AUC was determined as 1190 ng·h/mL and the Cmax came to 472 ng/mL.

Take `CCN(c1cc(-c2ccc3c(c2)N(C(C)C)CC32CCOCC2)c(Cl)c(C(=O)NCc2c(OC)cc(C)[nH]c2=O)c1C)C1CCOCC1` [Example 49, 2-chloro-5-(ethyl(tetrahydro-2H-pyran-4-yl)amino)-3-(1-isopropyl-2,3,5,6-tetrahydrospiro[dihydroindole-3,4-pyran]-6-yl)-N-((4-methoxy-6-methyl-2-oxo-1,2-dihydropyridin-3-yl)methyl)-6-methylbenzamide]: the half-life is 1.31 h and the bioavailability was found to be 26.2%. Besides, the AUC (Intravenous-Dose 4 mg/kg) came out at 997 ng·h/mL. For the same compound, where the note is “Oral-Dose 20 mg/kg”, the AUC was 1300 ng·h/mL and the Cmax was found to be 598 ng/mL.

For the compound `CCN(c1cc(-c2ccc3c(c2)N(C)C(=O)C32CCN(C(C)C)CC2)c(F)c(C(=O)NCc2c(C)cc(C)[nH]c2=O)c1C)C1CCOCC1` [Example 61, N-((4,6-dimethyl-2-oxo-1,2-dihydropyridin-3-yl)methyl)-3-(ethyl(tetrahydro-2H-pyran-4-yl)amino)-6-fluoro-5-(1′-isopropyl-1-methyl-2-oxospiro[dihydroindole-3,4′-piperidine]-6-yl)-2-methylbenzamide], the half-life was 1.72 h and the bioavailability worked out at 26.8%. For the same compound, the AUC (Intravenous-Dose 4 mg/kg) is 932 ng·h/mL. For the setting “Oral-Dose 20 mg/kg”, the AUC worked out at 1250 ng·h/mL and the Cmax came to 426 ng/mL.

For the compound `CCN(c1cc(-c2ccc3c(c2)NC(=O)C32CCOCC2)cc(C(=O)NCc2c(OC)cc(C)[nH]c2=O)c1C)C1CCOCC1` [Example 115, 3-(Ethyl(tetrahydro-2H-pyran-4-yl)amino)-N-((4-methoxy-6-methyl-2-oxo-1,2-dihydropyridin-3-yl)methyl)-2-methyl-5-(2-oxo-2′,3′,5′,6′-tetrahydrospiro[dihydroindole-3,4′-pyran]-6-yl)benzamide], the half-life is 1.15 h and the bioavailability is 33.1%. Moreover, the AUC (Intravenous-Dose 4 mg/kg) came out at 948 ng·h/mL. Further, under “Oral-Dose 20 mg/kg”, the AUC amounted to 1570 ng·h/mL and the Cmax came to 415 ng/mL.
